Earlier results in the CATMoS acute toxicity set (Mansouri et al. 2021).
Values joined by “and” are separate entries in the source; they are usually repeats but may differ in a detail not shown here. Equal entries are not always repeated.

Assay: rat acute oral toxicity
Details: in vivo
Description: […]The data set underlying the modeling effort for this project was initially compiled by NICEATM and U.S. EPA’s CCTE. Briefly, LD50 data were collected from rat acute oral systemic toxicity tests, including limit tests, ranges/confidence intervals, and discrete LD50 values. The full data set included 21,200 LD50 entries for 15,688 substances. […] Data were reviewed to ensure that LD50 values with obvious errors in the extracted data such as unit conversion errors (e.g., comma and decimal separator misplacements) were either fixed or removed. After this review, 16,209 LD50 values remained. Many of the chemicals represented had multiple LD50 entries, requiring that a single representative value per Chemical Abstracts Service Registry Number (CASRN) identifier be defined to facilitate modeling efforts. Based on ATWG feedback and to define the representative LD50 as a protective value while accounting for the distribution across multiple LD50s, the median of the lowest quartile was computed using only discrete LD50 values (omitting limit test data and range and confidence interval data). A detailed summary of the data compilation is available online on the NICEATM webpage dedicated to the collaborative modeling project (NTP 2020).
[…][…] For categorical designations, limit test and range/confidence interval LD50 data were integrated wherever possible. As such, the number of chemicals with end point values/calls varies across the modeling end points (Table 3) based on whether chemicals had representative LD50 values and/or other data. If a chemical had both, the representative value was used to determine categorical calls rather than limit test data. Some data were useable only for certain end points and categories depending on the thresholds. For example, ranges that spanned multiple hazard categories were considered only for the binary (very toxic/nontoxic) end points and omitted from rendering a determination for hazard category assignment.
[…]The final data set comprising 11,992 chemicals was split into training and evaluation sets […], respectively. This process was performed semirandomly by ordering chemicals based on the five end points (categorical and continuous LD50 values) and partitioning every fourth record into the evaluation set accordingly. This approach was taken to ensure an equivalent distribution of the LD50 values and the different hazard categories between the training and the evaluation sets without supervised sampling of the chemicals based on structures (Figure 1A). The sources of the chemical structures were also kept equivalent between the two sets, with chemical structures obtained from DSSTox, being the highest quality, representing over 75% of each set (Figure 1B).

Row | SMILES | LD50
1 | CC(C)(C)C(=O)CCc1ccc(Cl)cc1 | 3140 mg/kg
2 | CCOP(=O)(OCC)Oc1cc(C)n(CC)c(=O)c1 | 1.62 mg/kg
3 | CCCS(=O)(=O)c1c(Cl)cnc(Cl)c1Cl | 1100 mg/kg
4 | CCN(CC)CCNc1c2ccccc2nc2cccc([N+](=O)[O-])c12 | 42.2 mg/kg
5 | CC(C)(C)C(=O)COc1ccc(Cl)cc1 | 4650 mg/kg
6 | O=C1CCc2cc(CCCCN3CCN(c4ccccc4Cl)CC3)ccc2N1 | 500 mg/kg
7 | O=C(O)c1ccccc1C(=O)Nc1ccccc1 | 8840 mg/kg
8 | CC(O)C1Sc2ccccc2N(CCCN(C)C)C1c1ccccc1 (stereo not given) | 800 mg/kg
9 | Cc1cccnc1-n1c(C)nc2ccccc2c1=O | 395 mg/kg
10 | CCS(=O)(=O)CCO | 18000 mg/kg
11 | CCN(CC)CCOc1ccc(C(=C(Cl)c2ccccc2)c2ccccc2)cc1 | 5750 mg/kg
12 | O=C(O)Cc1ccccc1Nc1c(Cl)cc(Cl)c2ccccc12 | 56.2 mg/kg
13 | Nc1ccccc1C(=O)O | 5410 mg/kg
14 | CCCC(C)OC(N)=O (stereo not given) | 421 mg/kg
15 | CCOP(=O)(OCC)SC(C)C | 179 mg/kg
16 | CCOP(=O)(OCC)Oc1ccc2ccc(=O)oc2c1 | 29 mg/kg
17 | CC(Cl)(CCl)C(=O)O (stereo not given) | 8000 mg/kg
18 | CNP1(=S)OCc2cc([N+](=O)[O-])ccc2O1 (stereo not given) | 125 mg/kg
19 | CCC(=O)O[C@](Cc1ccccc1)(c1ccccc1)[C@H](C)CN(C)C | 84 mg/kg
20 | CCN(CC)CC(=O)c1c2c(cc3c1CCC3)CCC2 | 2220 mg/kg

Row | SMILES | LD50
21 | O=C(OCC1CO1)c1ccccc1C(=O)OCC1CO1 (stereo not given) | 1240 mg/kg
22 | O=C(NCNC(=O)NC1C(=O)NC(=O)N1CO)NC1C(=O)NC(=O)N1CO (stereo not given) | 11300 mg/kg
23 | Cc1cc(-c2ccccc2)n[nH]1 | 1800 mg/kg
24 | CC1(C)CC1CC1C(=O)N(c2ccccc2)N(c2ccccc2)C1=O (stereo not given) | 800 mg/kg
25 | CC(CC(=O)c1ccc(-c2ccc(F)cc2F)cc1)C(=O)O (stereo not given) | 134 mg/kg
26 | C[C@H](NC(=O)[C@H](C)NC(=O)[C@@H](N)CCP(C)(=O)O)C(=O)O | 268 mg/kg
27 | CCNc1nc(=O)nc(NC(C)(C)C(=O)O)[nH]1 | 789 mg/kg
28 | CN(C)CCCN1c2ccccc2Sc2ccccc21 | 350 mg/kg and 400 mg/kg
29 | O=C(O)C1=CCCN(CCOC(c2ccc(C(F)(F)F)cc2)c2ccc(C(F)(F)F)cc2)C1 | 894 mg/kg
30 | S=C1NCNCN1 | 4.6 mg/kg
31 | O=C(O[C@H]1C[C@H]2CC[C@@H](C1)[N+]21CCCC1)C(O)(c1ccccc1)c1ccccc1 | 1510 mg/kg
32 | O=c1ccc2ccc3occc3c2o1 | 322 mg/kg
33 | CCCC(=O)O[C@]1(C(=O)COC(=O)CC)CC[C@H]2[C@@H]3CCC4=CC(=O)CC[C@]4(C)[C@H]3[C@@H](O)C[C@@]21C | 5120 mg/kg
34 | O=Cc1ccc2c(c1)OCO2 | 2700 mg/kg
35 | Cc1nc(N)nc(N)c1-c1ccc(Br)cc1 | 250 mg/kg
36 | CCCCC | 400 mg/kg
37 | CCCCCCCCCCCCN(CCC(=O)O)CCC(=O)O | 31300 mg/kg
38 | CN(C)C(=O)c1nc(CNC(=O)CN)n(-c2ccc(Cl)cc2C(=O)c2ccccc2Cl)n1 | 680 mg/kg
39 | CN1CCN(CCCN2c3ccccc3Sc3ccc(C(F)(F)F)cc32)CC1 | 543 mg/kg
40 | CC[C@H]1C[C@H]2[C@@H]3CCC4=CC(=O)CC[C@@H]4[C@H]3CC[C@]2(C)[C@H]1O | 12100 mg/kg

Row | SMILES | LD50
41 | CC(C)(C)c1ccc(OCC(O)COc2ccc(C(=O)O)cc2)cc1 (stereo not given) | 2400 mg/kg
42 | CN(C)C(=O)COC(=O)Cc1ccc(OC(=O)c2ccc(NC(=N)N)cc2)cc1 | 3000 mg/kg
43 | Nc1ccc(O)c(N)c1 | 240 mg/kg
44 | CCN(CC)C(=O)N[C@H]1C[C@@H]2c3cccc4[nH]cc(c34)C[C@H]2N(C)C1 | 100 mg/kg
45 | O=C(CCCN1CCN(C(=O)OC2CCCCC2)CC1)c1ccc(F)cc1 | 1080 mg/kg
46 | Cc1c[nH]cn1 | 751 mg/kg
47 | Nc1cc(N)cc(C(F)(F)F)c1 | 380 mg/kg
48 | CC(=O)N(/C(=N/c1cccnc1)NC#N)C(C)(C)C | 615 mg/kg
49 | CCC(C)N(C(=O)c1c(Cl)cccc1Cl)C(C)CC (stereo not given) | 1450 mg/kg
50 | C[N+]1(CC2COC(c3ccccc3)(c3ccccc3)O2)CCCCC1 (stereo not given) | 1820 mg/kg
51 | CCOC(=S)SCSSCP(=O)(OCC)OCC | 14 mg/kg
52 | CCOC(=O)CCC(=O)CC1(O)C2(Cl)C3(Cl)C4(Cl)C(Cl)(Cl)C5(Cl)C3(Cl)C1(Cl)C5(Cl)C42Cl (stereo not given) | 240 mg/kg
53 | CC(C)N1C=CC(=C2C(=O)c3ccccc3C2=O)C=C1 | 1450 mg/kg
54 | Nc1c(I)cc(I)c(C(=O)N(CCC(=O)O)c2ccccc2)c1I | 2800 mg/kg
55 | C=C(C)c1cccc(C(C)(C)N=C=O)c1 | 3100 mg/kg
56 | C[C@H]1C[C@H]2[C@@H]3CCC4=CC(=O)C=C[C@]4(C)[C@@]3(F)[C@@H](O)C[C@]2(C)[C@@]1(O)C(=O)COP(=O)(O)O | 1880 mg/kg
57 | CC(C)(C)C(O)/C(=C\c1ccc(Cl)cc1)n1cncn1 (stereo not given) | 1790 mg/kg
58 | COc1ccc(N2CCN(CCCN(C)C)CC2)cc1 | 787 mg/kg
59 | CC(C)COC(=O)c1ccccc1O | 1560 mg/kg
60 | O=c1c2ccccc2nc2n1OCC2 | 395 mg/kg
